In patent US10399989B2, “Pyrazolopyrimidine derivatives as BTK inhibitors for the treatment of cancer” (Loxo Oncology, Inc., priority 2016, dated 2019):
Like-named read-outs stand apart in the source and are kept apart here.

Columns and labels:
EGFR = EGFR (Homo sapiens (Human), UniProt P00533); assay: EGFR binding affinity (TR-FRET, LanthaScreen); details: 5 h incubation
In short: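 IC50 derived by variable-slope fit of TR-FRET signal (ex 340, em 615 and 665 nm) against inhibitor concentration. Mix contained recombinant GST-detected EGFR at 2.5 nM, Eu anti-GST antibody at 2 nM and Kinase Tracer 199 at 3 nM in Kinase Buffer A, 5 h incubation.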

[1] = tested on: OCI-Ly10 human DLBCL cells; assay: OCI-Ly10 anti-proliferative activity (Resazurin, 72 h); type: cell-based; details: read-out: Proliferation OCI-Ly10-IC50
In short: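 Resazurin fluorescence (590 nm, 5 h dye incubation) read after 72 h compound exposure at 37 °C; NFκB-dependent cells seeded at 7.5×10^3/well in 2.5% FBS medium. Day 0 signal subtracted, values normalised to DMSO control; IC50 from log[inhibitor] vs response, variable-slope fit.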

BTK^C481S = BTK^C481S (Homo sapiens (Human), UniProt Q06187, C481S); assay: BTK^C481S binding affinity (TR-FRET, LanthaScreen); details: 5 h incubation
In short: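 Tracer-displacement TR-FRET: 5 nM recombinant kinase, 2 nM Eu anti-His antibody and 30 nM Kinase Tracer 236 incubated 5 h with varying inhibitor in Kinase Buffer A. Read at 340 nm excitation, 615/665 nm emission. IC50 from log[inhibitor]–response variable-slope fit.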

BTK^WT = BTK^WT (Homo sapiens (Human), UniProt Q06187); assay: BTK^WT binding affinity (TR-FRET, LanthaScreen)
In short: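 Tracer-displacement TR-FRET: 2.5 nM recombinant BTK, 2 nM Eu anti-His antibody and 15 nM Kinase Tracer 236 in Kinase Buffer A with inhibitor for 5 h. Emission read at 615/665 nm (excitation 340 nm); IC50 from variable-slope fit of log concentration vs response.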

[2] = TR-FRET binding, 5 h incubation, read-out: BTK^WT IC50

Sequence of BTK^WT (Q06187 whole entry): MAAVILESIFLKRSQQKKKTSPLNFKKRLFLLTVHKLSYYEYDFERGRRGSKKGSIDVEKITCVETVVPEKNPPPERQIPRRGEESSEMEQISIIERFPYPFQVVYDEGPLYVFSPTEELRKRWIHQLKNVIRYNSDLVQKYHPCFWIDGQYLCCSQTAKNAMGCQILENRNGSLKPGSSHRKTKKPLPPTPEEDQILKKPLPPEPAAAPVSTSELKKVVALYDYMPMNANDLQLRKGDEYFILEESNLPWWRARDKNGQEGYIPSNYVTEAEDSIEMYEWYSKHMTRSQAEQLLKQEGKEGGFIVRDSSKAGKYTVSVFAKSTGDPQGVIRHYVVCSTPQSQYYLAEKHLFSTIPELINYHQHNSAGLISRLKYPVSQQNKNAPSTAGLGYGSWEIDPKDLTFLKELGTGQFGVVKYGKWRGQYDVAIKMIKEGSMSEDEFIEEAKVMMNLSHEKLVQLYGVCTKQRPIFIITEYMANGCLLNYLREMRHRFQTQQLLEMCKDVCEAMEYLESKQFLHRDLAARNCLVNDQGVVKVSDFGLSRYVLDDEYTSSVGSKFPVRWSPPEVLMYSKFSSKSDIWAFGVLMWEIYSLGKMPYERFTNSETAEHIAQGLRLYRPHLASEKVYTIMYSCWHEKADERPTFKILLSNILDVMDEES
Sequence of BTK^C481S (Q06187 whole entry C481S): as the sequence (Q06187 whole entry) above, with C481S counted along it
Sequence of EGFR (P00533 25-1210): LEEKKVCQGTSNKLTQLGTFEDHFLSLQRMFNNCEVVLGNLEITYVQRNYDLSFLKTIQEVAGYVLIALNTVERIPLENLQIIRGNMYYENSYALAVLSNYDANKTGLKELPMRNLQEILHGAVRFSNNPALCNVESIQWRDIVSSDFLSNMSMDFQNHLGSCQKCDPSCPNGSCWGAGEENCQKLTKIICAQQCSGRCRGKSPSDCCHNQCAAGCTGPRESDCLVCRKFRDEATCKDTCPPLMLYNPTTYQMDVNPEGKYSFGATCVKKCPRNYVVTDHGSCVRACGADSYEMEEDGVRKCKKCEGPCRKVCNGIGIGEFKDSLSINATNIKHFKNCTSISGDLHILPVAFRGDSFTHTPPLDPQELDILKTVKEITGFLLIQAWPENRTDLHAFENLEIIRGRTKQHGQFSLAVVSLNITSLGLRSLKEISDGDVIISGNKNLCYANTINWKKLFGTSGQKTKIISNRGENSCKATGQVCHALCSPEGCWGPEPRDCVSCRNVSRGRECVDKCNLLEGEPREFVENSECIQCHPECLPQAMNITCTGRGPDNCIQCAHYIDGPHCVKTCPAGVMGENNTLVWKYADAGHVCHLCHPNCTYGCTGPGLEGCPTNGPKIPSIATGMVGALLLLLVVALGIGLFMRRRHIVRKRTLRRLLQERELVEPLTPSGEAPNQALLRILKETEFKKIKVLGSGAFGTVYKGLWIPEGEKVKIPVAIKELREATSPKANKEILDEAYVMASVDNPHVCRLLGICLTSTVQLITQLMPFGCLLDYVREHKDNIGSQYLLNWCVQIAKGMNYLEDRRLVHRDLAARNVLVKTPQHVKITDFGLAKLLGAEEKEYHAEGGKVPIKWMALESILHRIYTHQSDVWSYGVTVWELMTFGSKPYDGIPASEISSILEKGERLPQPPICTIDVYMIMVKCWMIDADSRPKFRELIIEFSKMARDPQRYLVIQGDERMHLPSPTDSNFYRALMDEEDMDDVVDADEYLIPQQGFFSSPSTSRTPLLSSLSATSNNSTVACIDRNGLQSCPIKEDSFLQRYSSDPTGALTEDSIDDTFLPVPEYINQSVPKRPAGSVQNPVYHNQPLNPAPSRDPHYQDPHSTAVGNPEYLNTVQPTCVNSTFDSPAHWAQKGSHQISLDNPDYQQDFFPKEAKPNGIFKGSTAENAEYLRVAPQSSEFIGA

COc1ccccc1C(=O)NCc1ccc(-c2nn(C3CCCOC3)c3ncnc(N)c23)cc1 (centres unmarked) [Example 34, N-[[4-(4-amino-1-tetrahydropyran-3-yl-pyrazolo[3,4-d]pyrimidin-3-yl)phenyl]methyl]-2-methoxy-benzamide]
IC50 (EGFR): 1000 to 10000 nM
IC50 ([1]; Homo sapiens, OCI-Ly10, 72 h): 10 to 100 nM
IC50 (BTK^C481S): ≤ 10 nM
IC50 (BTK^WT; [2]): ≤ 10 nM

COc1ccc(C)cc1C(=O)NCc1ccc(-c2nn(C3CCCC3)c3ncnc(N)c23)cc1F [Example 65, N-[[4-(4-amino-1-cyclopentyl-pyrazolo[3,4-d]pyrimidin-3-yl)-2-fluoro-phenyl]methyl]-2-methoxy-5-methyl-benzamide]
IC50 (EGFR): 1000 to 10000 nM
IC50 ([1]; Homo sapiens, OCI-Ly10, 72 h): 100 to 1000 nM
IC50 (BTK^C481S): ≤ 10 nM
IC50 (BTK^WT; [2]): ≤ 10 nM

COc1ccccc1C(=O)NCc1ccc(-c2nn(C3CCCC(=O)C3)c3ncnc(N)c23)cc1 (centres unmarked) [Example 31, N-[[4-[4-amino-1-(3-oxocyclohexyl)pyrazolo[3,4-d]pyrimidin-3-yl]phenyl]methyl]-2-methoxy-benzamide]
IC50 (EGFR): 100 to 1000 nM
IC50 ([1]; Homo sapiens, OCI-Ly10, 72 h): 10 to 100 nM
IC50 (BTK^C481S): ≤ 10 nM
IC50 (BTK^WT; [2]): ≤ 10 nM

COc1ccccc1C(=O)NCc1ccc(-c2nn(C(C)(C)C)c3ncnc(N)c23)cc1 [Example 51, N-[[4-(4-amino-1-tert-butyl-pyrazolo[3,4-d]pyrimidin-3-yl)phenyl]methyl]-2-methoxy-benzamide]
IC50 (EGFR): 10 to 100 nM
IC50 ([1]; Homo sapiens, OCI-Ly10, 72 h): 10 to 100 nM
IC50 (BTK^C481S): ≤ 10 nM
IC50 (BTK^WT; [2]): ≤ 10 nM
IC50 (BTK^WT; Table 6, numeric values, read-out: BTK Binding IC50): 0.6 nM

COc1ccccc1C(=O)NCc1ccc(-c2nn(CC(F)(F)F)c3ncnc(N)c23)cc1 [Example 90, N-[[4-[4-Amino-1-(2,2,2-trifluoroethyl)pyrazolo[3,4-d]pyrimidin-3-yl]phenyl]methyl]-2-methoxy-benzamide]
IC50 (EGFR): > 10000 nM
IC50 ([1]; Homo sapiens, OCI-Ly10, 72 h): 1000 to 10000 nM
IC50 (BTK^C481S): 10 to 100 nM
IC50 (BTK^WT; [2]): 10 to 100 nM

CNC1CCC(n2nc(-c3ccc(CNC(=O)c4ccccc4OC)cc3)c3c(N)ncnc32)CC1 (centres unmarked) [Example 28, N-[[4-[4-amino-1-[4-(methylamino)cyclohexyl]pyrazolo[3,4-d]pyrimidin-3-yl]phenyl]methyl]-2-methoxy-benzamide]
IC50 (EGFR): 100 to 1000 nM
IC50 ([1]; Homo sapiens, OCI-Ly10, 72 h): 100 to 1000 nM
IC50 (BTK^C481S): 10 to 100 nM
IC50 (BTK^WT; [2]): 10 to 100 nM

COCCO[C@H]1C=C[C@H](n2nc(-c3ccc(CNC(=O)c4ccccc4OC)cc3)c3c(N)ncnc32)C1 [Example 57, N-[[4-[4-amino-1-[(1R,4R)-4-(2-methoxyethoxy)cyclopent-2-en-1-yl]pyrazolo[3,4-d]pyrimidin-3-yl]phenyl]methyl]-2-methoxy-benzamide]
IC50 (EGFR): 1000 to 10000 nM
IC50 ([1]; Homo sapiens, OCI-Ly10, 72 h): 100 to 1000 nM
IC50 (BTK^C481S): 1000 to 10000 nM
IC50 (BTK^WT; [2]): 100 to 1000 nM

Nc1ncnc2c1c(-c1ccc(CNC(=O)c3nccc4ccccc34)cc1)nn2C1CCCC1 [Example 69, N-[[4-(4-amino-1-cyclopentyl-pyrazolo[3,4-d]pyrimidin-3-yl)phenyl]methyl]isoquinoline-1-carboxamide]
IC50 (EGFR): 1000 to 10000 nM
IC50 ([1]; Homo sapiens, OCI-Ly10, 72 h): 1000 to 10000 nM
IC50 (BTK^C481S): 100 to 1000 nM
IC50 (BTK^WT; [2]): 100 to 1000 nM

COc1ccccc1C(=O)NCc1ccc(-c2nn(C3CCC(=O)CC3)c3ncnc(N)c23)cc1 [Example 26, N-[[4-[4-amino-1-(4-oxocyclohexyl)pyrazolo[3,4-d]pyrimidin-3-yl]phenyl]methyl]-2-methoxy-benzamide]
IC50 (EGFR): 100 to 1000 nM
IC50 ([1]; Homo sapiens, OCI-Ly10, 72 h): 100 to 1000 nM
IC50 (BTK^C481S): ≤ 10 nM
IC50 (BTK^WT; [2]): 10 to 100 nM

COc1ccccc1C(=O)NCc1ccc(-c2nn(C3CC4CC4C3)c3ncnc(N)c23)cc1 (centres unmarked) [Example 52, N-[[4-[4-amino-1-(3-bicyclo[3.1.0]hexanyl)pyrazolo[3,4-d]pyrimidin-3-yl]phenyl]methyl]-2-methoxy-benzamide]
IC50 (EGFR): 10 to 100 nM
IC50 ([1]; Homo sapiens, OCI-Ly10, 72 h): 10 to 100 nM
IC50 (BTK^C481S): ≤ 10 nM
IC50 (BTK^WT; [2]): ≤ 10 nM

COc1ccc(F)cc1C(=O)NCc1ccc(-c2nn(CC(F)(F)F)c3ncnc(N)c23)cc1 [Example 93, N-[[4-[4-Amino-1-(2,2,2-trifluoroethyl)pyrazolo[3,4-d]pyrimidin-3-yl]phenyl]methyl]-5-fluoro-2-methoxy-benzamide]
IC50 (EGFR): > 10000 nM
IC50 ([1]; Homo sapiens, OCI-Ly10, 72 h): 100 to 1000 nM
IC50 (BTK^C481S): ≤ 10 nM
IC50 (BTK^WT; [2]): ≤ 10 nM

COc1ccc(F)cc1C(=O)NCc1ccc(-c2nn(C3CCC(C)(O)CC3)c3ncnc(N)c23)cc1 (single isomer, unassigned) [Example 95, N-[[4-[4-Amino-1-(4-hydroxy-4-methyl-cyclohexyl)pyrazolo[3,4-d]pyrimidin-3-yl]phenyl]methyl]-5-fluoro-2-methoxy-benzamide]
IC50 (EGFR): 100 to 1000 nM
IC50 [1]: 10 to 100 nM
IC50 (BTK^C481S): ≤ 10 nM
IC50 (BTK^WT; [2]): ≤ 10 nM

COc1ccccc1C(=O)NCc1ccc(-c2nn(C3CCCC3)c3ncnc(N)c23)c(OC)c1 [Example 77, N-[[4-(4-Amino-1-cyclopentyl-pyrazolo[3,4-d]pyrimidin-3-yl)-3-methoxy-phenyl]methyl]-2-methoxy-benzamide]
IC50 (EGFR): > 10000 nM
IC50 ([1]; Homo sapiens, OCI-Ly10, 72 h): 10 to 100 nM
IC50 (BTK^C481S): ≤ 10 nM
IC50 (BTK^WT; [2]): ≤ 10 nM
